Laboratory results published in patent US20070054926A1 (priority 2003, published 2007).
Where two headings read alike, the source gives them in different places.

Test system: Phytophthora infestans
Type: in vivo
Conditions: individual active compound, protective, assessed 6 days after infection

| Structure (SMILES) | Efficacy in % of the untreated control (16 ppm in the spray liquor) | Efficacy in % of the untreated control (4 ppm in the spray liquor) | Efficacy in % of the untreated control (63 ppm in the spray liquor) |
| --- | --- | --- | --- |
| Fc1ccc([C@]2(Cn3cncn3)O[C@H]2c2ccccc2Cl)cc1 (racemic) [compound II, (2RS,3SR)-1-[3-(2-chlorophenyl)-2,3-epoxy-2-(4-fluorophenyl)-propyl]-1H-1,2,4-triazole] | 10% | – | – |
| CC1CCN(c2c(-c3c(F)cccc3Cl)c(Cl)nc3ncnn23)CC1 [A] | 0% | 0% | 0% |
| C[C@H](Nc1c(-c2c(F)cc(F)cc2F)c(Cl)nc2ncnn12)C(F)(F)F [B] | 0% | 0% | 10% |
| CC1CCN(c2c(-c3c(F)cc(F)cc3F)c(Cl)nc3ncnn23)CC1 [compound I, 5-chloro-7-(4-methylpiperidin-1-yl)-6-(2,4,6-trifluorophenyl)-[1,2,4]triazolo[1,5-a]pyrimidine] | 10% | 0% | 10% |
